For data set [1] the following is noted: cited from earlier work.
Data set [2] can be described thus: in vivo. The settings on record: rat. The procedure: Quantification was performed using the selective MRM mode on a short LC column using a fast gradient.
Blood samples were collected at time 0, 30 min and 1, 3, 6, 24, 30 and 48 hrs. All plasma samples were collected after centrifugation and frozen at −80° C. Plasma was transferred on dry ice to the Platform of Biopharmacy and was kept at −80° C. until extraction and LC/MS/MS analysis (Table 1).
The plasma tubes were thawed on ice. Plasma samples were vortex mixed and 20 μL were pipetted into Eppendorf tubes. Proteins were precipitated by the addition of 40 μL acetonitrile. The tubes were vortex mixed and centrifuged for 4.5 min at 13,000 rpm. 20 μL of supernatant was transferred into a HPLC 96-well plate, and mixed with two volumes of water containing 5 mM ammonium acetate. The calibration curve was prepared in blank SD rat plasma, by serial dilution from 10 μM to […] Standard plasma samples were treated as described above.
Chromatography was performed on a Phenomenex Luna C8(2) 30×2 mm (5 μm) using gradient elution at 0.7 mL/min. The injection volume was 4 μL. The total acquisition time was 4.5 min. Samples were analyzed in selective MRM mode using LC-MS/MS. Peak area ratios for calibration curves and quantification of samples were calculated using Analyst software version 1.6.2. Calibration curves were plotted using the peak area ratios analyte/internal standard versus nominal analyte concentration, using a quadratic weighted 1/x regression.

The conditions of data set [3]: rat, in vivo.
Data set [4] in a line: in vivo. The settings on record: male, rat, po, 50 mg/kg, plasma Raloxifene.

Structures are written as SMILES. Read-outs that look alike come from different tables or passages of the source.

Turning to `CCc1c2c(nc3ccc(OC(=O)N4CCC(N5CCCCC5)CC4)cc13)-c1cc3c(c(=O)n1C2)COC(=O)[C@]3(O)CC` [Irinotecan], in data set [1], the “water solubility (in words)” value is recorded as “good water solubility”.

Take `N#Cc1ccc(C(c2ccc(C#N)cc2)n2cncn2)cc1` [Letrozole]: in data set [1], the “water solubility (in words)” value was “very poor water solubility”. For the same compound, the Cmax in the data set “in vivo [2]” (male, SD (Sprague-Dawley), po, 5 mg/kg, Cmax, plasma Letrozole) came out at 4240 nM. For the same compound, the time to peak (Tmax) in “in vivo [2]” (male, SD (Sprague-Dawley), po, 5 mg/kg, plasma Letrozole) was 4.5 h; in the data set “in vivo [2]” (male, SD, po, 5 mg/kg, plasma Letrozole) it was 6 h. In addition, the “drug toxicity after combination with HA” value in the data set “in vivo [2]” was “no detectable augmentation of the drug toxicity”. Besides, in “in vivo [2]” (po), the “bioavailability after combination with HA” value was “increased”.

For `O=C(c1ccc(OCCN2CCCCC2)cc1)c1c(-c2ccc(O)cc2)sc2cc(O)ccc12` [Raloxifene], the “drug toxicity after combination with HA” value in data set [3] is recorded as “no detectable augmentation of the drug toxicity”. For the same compound, in data set [3] (po), the “bioavailability after combination with HA” value is listed as “increased”. Moreover, in data set [1], the “water solubility (in words)” value is listed as “very poor water solubility”. The compound further showed a Cmax in the data set “in vivo [4]” (SD (Sprague-Dawley), Cmax) of 190 nM. The time of peak concentration (Tmax) in “in vivo [4]” (SD (Sprague-Dawley)) amounted to 4.5 h; in the data set “in vivo [4]” (SD), 3 h.

In general, Cmax refers to the highest concentration seen after dosing. By Tmax is commonly meant the time from dosing to the highest level.

The values above are taken from patent US20160346398A1, “CROSS-LINKED HYALURONIC ACID FOR DRUG DELIVERY AND PHARMACEUTICAL PREPARATION USING SAME” (ALURON BIOPHARMA INC., priority 2015, published 2016).
